Patent publication US6962906B2, “Oligonucleotide analogues, methods of synthesis and methods of use” (Active Motif, priority 2000, dated 2005)
“And” between values parts separate entries of the source, which are not always exact repeats. Equal values may be shown once.

Assays:
Assay type in all cases: binding
[1] = tested on: DNA oligomer 5′-TGGTCTCACGTCAGTG-3′ (SEQ ID NO: 19); assay: Melting curve analysis, mismatch discrimination in moderate salt, DNA/DNA control; conditions: for Tm, ° C. DNA/DNA: 20 millimolar Tris-HCl, pH 7.5, 150 millimolar NaCl, 10 millimolar MgCl2, oligomers 1:1; for ΔTm DNA/DNA: 150 millimolar NaCl, relative to no mismatches
Description: (§1) The sequence of the […] oligomer was: Th-Gp-Gh-Tp-Ch-Tp-Ch-Ap-Ah-Gp-Th-Cp-Ah-Gp-Th-Gp-dT, where the subscript h denotes a “HypNA” monomeric unit and the subscript p denotes a “pPNA” monomeric unit. […] For performing DNA-DNA control hybridizations, a DNA oligomer with a sequence identical to that of the […] oligomer, […]) was also synthesized. To perform the melting curve analysis, the DNA oligomers and […] oligomers were mixed at a 1:1 in a volume of 400 microliters. For nucleic acid hybridization controls, DNA oligomers and complementary (or partially complementary) DNA oligomers, were mixed at a 1:1 ratio in a volume of 400 microliters. The hybridization solutions contained 20 millimolar Tris-HCl, pH 7.5, 150 millimolar NaCl, and 10 millimolar MgCl2. The mixtures of DNA oligomers or DNA oligomers with […] oligomers were then incubated at 90 degrees C. for 3 minutes and allowed to cool gradually to room temperature overnight. […] Changes in the absorbance at 260 nanometers were recorded, and a Tm was calculated for each combination of oligomers. In some cases, there was no discernible Tm, which we interpret to be the result of the inability of particular oligomer pairs to form stable complexes.

[2] = tested on: HypNA-pPNA 16-mer; assay: Melting curve analysis, mismatch discrimination in moderate salt, PNA/DNA; conditions: for Tm, ° C. PNA/DNA: 20 millimolar Tris-HCl, pH 7.5, 150 millimolar NaCl, 10 millimolar MgCl2, oligomers 1:1, * = Tms not reliable, complex probably unstable; for ΔTm PNA/DNA: 150 millimolar NaCl, relative to no mismatches
Description: as §1

[3] = tested on: HypNA-pPNA 16-mer; assay: Melting curve analysis, mismatch discrimination in high salt, PNA/DNA; conditions: for Tm, ° C. PNA/DNA: 20 millimolar Tris-HCl, pH 7.5, 500 millimolar NaCl, 10 millimolar MgCl2, oligomers 1:1; for ΔTm PNA/DNA: 500 millimolar NaCl, relative to no mismatches
Description: (§2) The sequence of the […] oligomer was: Th-Gp-Gh-Tp-Ch-Tp-Ch-Ap-Ah-Gp-Th-Cp-Ah-Gp-Th-Gp-. […] For performing DNA-DNA control hybridizations, a DNA oligomer with a sequence identical to that of the […] oligomer was also synthesized. To perform the melting curve analysis, the DNA oligomers and […] oligomers were mixed at a 1:1 ratio in a volume of 400 microliters. For nucleic acid hybridization controls, DNA oligomers and complementary (or nearly complementary) DNA oligomers, were mixed at a 1:1 ratio in a volume of 400 microliters. The hybridization solutions contained 20 millimolar Tris-HCl, pH 7.5, 500 millimolar NaCl, and 10 millimolar MgCl2. The mixtures of DNA oligomers or DNA oligomers with […] oligomers were then incubated at 90 degrees C. for 3 minutes and allowed to cool gradually to room temperature overnight. […] Changes in the absorbance at 260 nanometers were recorded, and a Tm was calculated for each combination of oligomers. In some cases, there was no discernible Tm, which we interpret to be the result of the inability of particular oligomer pairs to form stable complexes.

[4] = tested on: DNA oligomer with a sequence identical to that of the HypNA-pPNA oligomer; assay: Melting curve analysis, mismatch discrimination in high salt, DNA/DNA control; conditions: for Tm, ° C. DNA/DNA: 20 millimolar Tris-HCl, pH 7.5, 500 millimolar NaCl, 10 millimolar MgCl2, oligomers 1:1; for ΔTm DNA/DNA: 500 millimolar NaCl, relative to no mismatches
Description: as §2

[5] = tested on: Oligonucleotide probes labeled with ^32P (DNA probe); assay: Hybridization of support-bound polyacrylamide-oligomer co-polymers to labeled oligonucleotide probes; effect of single-base mismatches; conditions: 0.1 M NaCl, 10 mM sodium phosphate (pH 7), 5 mM EDTA, 10 mM MgCl2, 0.1% sodium dodecyl sulfate
[6] = tested on: 16 mer poly A DNA; assay: Melting curve analysis of poly T probes hybridized to poly A DNA; conditions: 20 mM Tris, pH 7.5, 100 mM NaCl, 10 mM MgCl2; DNA to PNA oligomer 1:2 for PNA analogues
Description: (§3) In this experiment we compared hybridized complexes of DNA/DNA, DNA/PNAs, RNA/DNA and PNA/PNAs, for the stability of the complex formed. Poly A DNA oligomers, poly T DNA oligomers, poly A RNA oligomers, and poly T RNA oligomers were synthesized by solid phase synthesis. PNA oligonucleotide analogues were synthesized by solid phase synthesis using methods disclosed herein. The classical PNA Poly T oligomer consisted of a PNA having a N-(2-aminoethyl)glycine backbone. […] The 1:2 Poly T PNA consisted of: biotin-linker-(HypNA-pPNA-pPNA)5-dT. The 1:3 Poly T PNA consisted of: biotin-linker-[(HypNA-pPNA)-(pPNA-pPNA)]4-dT.
(§4) To hybridize DNA/DNA and DNA/RNA oligomers, equal amounts of oligonucleotide were mixed in 20 mM Tris, pH 7.5, 100 mM NaCl, 10 mM MgCl2, incubated at 90° C. for 3 minutes and left to cool gradually to room temperature overnight. Samples were then heated at a rate of 1° C. per minute from 20° C. to 100° C., using a spectrophotometer linked to a thermal control unit. Changes in A260 were recorded and a Tm value was calculated for each complex.
(§5) To hybridize PNA oligonucleotide analogues to DNA and RNA oligomers, the ratio of DNA (or RNA) oligomer to PNA oligomer was 1:2. This 1:2 ratio was used to promote the formation of a triplex structure, with 2 PNA oligomers binding to each DNA oligomer.
(§6) These samples were hybridized and treated in a identical manner to the DNA/DNA and DNA/RNA complexes to obtain Tm values.

[7] = tested on: 16 mer poly A RNA; assay: Melting curve analysis of poly T probes hybridized to poly A RNA; conditions: 20 mM Tris, pH 7.5, 100 mM NaCl, 10 mM MgCl2; RNA to PNA oligomer 1:2 for PNA analogues
Description: as §3, §4, §5, §6

Substance	Tm, ° C. DNA/DNA [1]	ΔTm DNA/DNA [1]	ΔTm PNA/DNA [2]	Tm, ° C. PNA/DNA [3]	Tm, ° C. DNA/DNA [4]	also measured
5′-CAC GGA GTT GAG ACC A -3′ (SEQ ID NO: 32) (DNA CACGGAGTTGAGACCA; DNA, backbone not given here) [Mismatch M, DNA oligomer with mismatches to the HypNA-pPNA 16-mer]	50.2 °C and 45.2 °C	11.5 °C and 16.4 °C				
5′-CAC TGA ATT GAG ACC A -3′ (SEQ ID NO: 30) (DNA CACTGAATTGAGACCA; DNA, backbone not given here) [Mismatch J, DNA oligomer with mismatch to the HypNA-pPNA 16-mer]	52.3 °C and 52.5 °C	9.3 °C and 9.2 °C				
5′-CAC TGA CAT GAG ACC A -3′ (SEQ ID NO: 28) (DNA CACTGACATGAGACCA; DNA, backbone not given here) [Mismatch H, DNA oligomer with mismatch to the HypNA-pPNA 16-mer]	50.0 °C and 53.4 °C	11.6 °C and 8.3 °C	5.5 °C and 6.1 °C	41.3 °C and 43.5 °C	55.1 °C and 53.3 °C	Tm, ° C. PNA/DNA [2]: 52.7 °C and 51.8 °C; ΔTm PNA/DNA [3]: 17 °C and 15 °C; ΔTm DNA/DNA [4]: 9 °C and 11 °C
5′-CAC TGA CGT GAG ACC A -3′ (SEQ ID NO: 26) (DNA CACTGACGTGAGACCA; DNA, backbone not given here) [Mismatch F, DNA oligomer with mismatch to the HypNA-pPNA 16-mer]	52.6 °C and 55.6 °C	9 °C and 6.1 °C	14.5 °C and 14.2 °C	No Tm	53.9 °C and 55.3 °C	Tm, ° C. PNA/DNA [2]: 43.7 °C; ΔTm DNA/DNA [4]: 10 °C and 9 °C
5′-CAC TGA CTG GAG ACC A -3′ (SEQ ID NO: 27) (DNA CACTGACTGGAGACCA; DNA, backbone not given here) [Mismatch G, DNA oligomer with mismatch to the HypNA-pPNA 16-mer]	52.2 °C and 52.6 °C	9.4 °C and 9.1 °C		No Tm	56.2 °C and 56.1 °C	ΔTm DNA/DNA [4]: 8 °C
5′-CAC TGA CTT GAG ACC A -3′ (SEQ ID NO: 20) [No mismatches]	61.7 °C and 61.6 °C			59.1 °C and 58.0 °C	63.8 °C and 64.5 °C and 64.0 °C	Tm, ° C. PNA/DNA [2]: 57.9 °C and 58.2 °C
5′-CAC TGA CTT GAG ACG A -3′ (SEQ ID NO: 24) (DNA CACTGACTTGAGACGA; DNA, backbone not given here) [Mismatch D, DNA oligomer with mismatch to the HypNA-pPNA 16-mer]				54.3 °C and 54.9 °C	60.8 °C and 62.7 °C	ΔTm PNA/DNA [3]: 4 °C and 3 °C
5′-CAC TGA CTT GAG TCC A -3′ (SEQ ID NO: 23) (DNA CACTGACTTGAGTCCA; DNA, backbone not given here) [Mismatch C, DNA oligomer with mismatch to the HypNA-pPNA 16-mer]	51.6 °C and 53.8 °C	10 °C and 7.9 °C	9.9 °C and 8.7 °C			Tm, ° C. PNA/DNA [2]: 48.3 °C and 49.2 °C
5′-CAC TGA GTG GAG ACC A -3′ (SEQ ID NO: 22) (DNA CACTGAGTGGAGACCA; DNA, backbone not given here) [Mismatch B, DNA oligomer with mismatches to the HypNA-pPNA 16-mer]	42.6 °C	19 °C and 18.9 °C		No Tm		
5′-CAC TGA GTT CAG ACC A -3′ (SEQ ID NO: 29) (DNA CACTGAGTTCAGACCA; DNA, backbone not given here) [Mismatch K, DNA oligomer with mismatches to the HypNA-pPNA 16-mer]	33.3 °C and 36.2 °C	28.3 °C and 25.5 °C	7 °C			
5′-CAC TGA GTT GAG ACC A -3′ (SEQ ID NO: 21) [Mismatch A]	51.7 °C and 51.8 °C	9.9 °C	13.1 °C and 12.5 °C	41.4 °C and 41.1 °C		Tm, ° C. PNA/DNA [2]: 45.1 °C and 45.4 °C; ΔTm PNA/DNA [3]: 17 °C; ΔTm DNA/DNA [4]: 7 °C
5′-CAC TGA GTT GGG ACC A -3′ (SEQ ID NO: 31) (DNA CACTGAGTTGGGACCA; DNA, backbone not given here) [Mismatch L, DNA oligomer with mismatches to the HypNA-pPNA 16-mer]	47.4 °C and 50.0 °C	14.2 °C and 11.7 °C	24.3 °C			
5′-CGG TGA CTT GAG ACC A -3′ (SEQ ID NO: 25) (DNA CGGTGACTTGAGACCA; DNA, backbone not given here) [Mismatch E, DNA oligomer with mismatches to the HypNA-pPNA 16-mer]	52.7 °C and 55.1 °C	8.9 °C and 6.6 °C		No Tm	56.5 °C and 56.8 °C	ΔTm DNA/DNA [4]: 7 °C
19 (DNA CTGCAAAGGACACCATGA; DNA, backbone not given here) [Oligomer 19]						Td (degr. C.) [5]: 55 degr. C.; Tm (degr. C.) [5]: 54 degr. C.
20 (DNA CTGCAAAGCACACCATGA; DNA, backbone not given here) [Oligomer 20]						Td (degr. C.) [5]: 41 degr. C.; Tm (degr. C.) [5]: 40 degr. C.
biotin-linker-(HypNA-pPNA)7-dT [1:1 Poly T PNA-analog]						Target: 16 mer poly A DNA Tm, ° C. [6]: 81.1 °C and 81.9 °C; Target: 16 mer poly A RNA Tm, ° C. [7]: 73.0 °C and 72.7 °C
biotin-linker-(HypNA-pPNA-pPNA)5-dT [1:2 Poly T PNA-analog]						Target: 16 mer poly A DNA Tm, ° C. [6]: 74.4 °C and 74.0 °C; Target: 16 mer poly A RNA Tm, ° C. [7]: 66.1 °C and 66.0 °C
biotin-linker-[(HypNA-pPNA)-(pPNA-pPNA)]4-dT [1:3 Poly T PNA-analog]						Target: 16 mer poly A DNA Tm, ° C. [6]: 60.9 °C and 60.8 °C; Target: 16 mer poly A RNA Tm, ° C. [7]: 48.9 °C and 47.2 °C
